Values of other authors as cited in patent US8207231B2, “Hepatitis A virucide” (Ecolab USA Inc., priority 1999, dated 2012).

Test system: hepatitis A
Settings: 1 percent and 2 percent concentration

SMILES: Cc1ccc(S(=O)(=O)[N-]Cl)cc1.[Na+] [chloramine T]
- meets the requirements for activity against hepatitis A: meets the requirements for activity against hepatitis A
